According to BindingDB's records for patent US20240190824 (Ono Pharmaceutical Co., 2024):

These compounds were tested against T1, Potassium channel subfamily K member 2 (Homo sapiens, UniProt O95069) (assay: TREK-1 Manual Patch Clamp (hMPC) assay).
T1 sequence (O95069 whole entry): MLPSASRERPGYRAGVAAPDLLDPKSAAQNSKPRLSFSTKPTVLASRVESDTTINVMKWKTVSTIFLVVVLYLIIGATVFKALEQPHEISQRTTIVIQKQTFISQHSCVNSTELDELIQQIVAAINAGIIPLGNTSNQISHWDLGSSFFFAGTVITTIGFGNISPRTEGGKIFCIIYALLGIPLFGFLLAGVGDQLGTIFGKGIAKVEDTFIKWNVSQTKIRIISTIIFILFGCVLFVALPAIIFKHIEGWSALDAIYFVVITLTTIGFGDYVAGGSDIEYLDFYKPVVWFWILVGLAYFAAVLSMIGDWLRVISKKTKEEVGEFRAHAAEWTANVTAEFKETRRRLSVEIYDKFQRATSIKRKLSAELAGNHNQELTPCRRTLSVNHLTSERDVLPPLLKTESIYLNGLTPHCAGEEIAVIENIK
Experimental: TBDCHO-K1 cells stably expressing human TREK-1 or HEK293 cells stably expressing human TREK-2 are plated on glass coverslips, and voltage clamped in the whole-cell configuration of the patch clamp technique. Cells were voltage clamped at a holding potential of −80 mV and the stepped to 0 mV for 500 msec. The voltage was subsequently ramped from −120 mV to +80 mV over a 500 msec duration. This step-ramp protocol was repeated every 10 sec.

Row | IC50 [µM] | Compound
1 | 0.032 | Cc1cc(C#Cc2cccc(F)c2)nc(C)c1NC(=O)c1cc(NC(=O)OC(C)(C)C)ccc1Cl [US20240190824, Compound 11]

What follows are compounds tested against T1, Potassium channel subfamily K member 2 (assay: Thallium flux assay).

Row | IC50 [µM] | Compound
2 | 0.41 | Cc1cc(C#Cc2cccc(F)c2)nc(C)c1NC(=O)c1cc(NC(=O)OC(C)(C)C)ccc1Cl [US20240190824, Compound 11]
3 | 0.21 | Cc1cc(C#Cc2ccccc2)cc(F)c1NC(=O)c1cc(NC(=O)OC(C)(C)C)ccc1Cl [US20240190824, Compound 29]
4 | 0.22 | CC(C)(C)OC(=O)Nc1ccc(Cl)c(C(=O)Nc2c(F)cc(C#Cc3ccccc3)cc2F)c1 [US20240190824, Compound 30]
5 | 0.39 | Cc1cc(COc2ccc(Cl)c(C(=O)Nc3ncc(C#Cc4ccccc4)cc3C)c2)on1 [US20240190824, Compound 83]
6 | 0.49 | Cc1cc(C#Cc2ccccc2)cnc1NC(=O)c1cc(OCC2CCOC2)ccc1Cl (stereo unspecified) [US20240190824, Compound 85]
